Test results taken from patent US20100317711A1, “STEM-LIKE CELLS AND METHOD FOR REPROGRAMMING ADULT MAMMALIAN SOMATIC CELLS” (GLIAMED, INC., priority 2009, published 2010).

What was measured:
[1] = tested on: normal human dermal fibroblasts (NHDF); assay: Oct4 immunostaining of normal human dermal fibroblasts cultured with GM1485; assay type: cell-based; details: GM1485 100 μM in serum free medium, 72 hours, versus vehicle
Description: The fibroblasts were harvested from a skin sample was taken from the face of a human cadaver. The skin sample was cut into small fragments and digested with dispase overnight (4° C.). Thereafter the epidermis was separated from the dermis. The dermis fragments were further digested with collagenase for approximately 1 h at 37° C., and then diluted with culture medium and filtered to obtain a suspension of dermal cells. The dermal cells were next purified via magnetic bead separation to yield normal human dermal fibroblasts (“NHDFs”). Second passage normal human dermal fibroblasts (NHDF) were seeded onto poly-D-lysine coated coverslips within wells of 24-well plates, at a density of 4,000 cells/well and cultured overnight in NHDF growth medium from PromoCell GmbH (NHDF GM) consisting of: The NHDF GM was aspirated, the wells were rinsed twice with Hank's balanced salt solution (HBSS), and 400 μL of serum free medium (SFM) supplemented with GM1485 at a final concentration of 100 μM or the vehicle the drug vehicle (SFM). […]

human keratinocytes = assay: In vitro treatment of human keratinocytes with GM1485 with or without rhIGF2 (Oct4, Sox2); assay type: cell-based
[2] = tested on: Adult, facial skin-derived human fibroblasts; assay: IGF2 blockade during GM1485-mediated iPS induction and neural re-differentiation of human fibroblasts; assay type: cell-based
Description: To test the role of IGF2 in GM1485-mediated iPS induction, an α-IGF2 blocking antibody was included at the onset of induction and maintained in culture for three days.
Adult, facial skin-derived human fibroblasts were cultured in the presence of 100 μM GM1485 in chemically defined medium for 72 hours with (b) or without (a) 40 ng/ml mAb IGF2, a neutralizing antibody (Abcam, Inc.). One set of cells was fixed and stained with rabbit αOct4 (a and b). IGF2 signaling is required of the reprogramming from somatic cells to iPS cells. On the chance that the cells maintained plasticity, cells were continued in culture, but they were switched to culture conditions under which ES cells differentiate along a neural pathway. In specific, the cells were rinsed in PBS and cultured with chemically defined medium supplemented with rhFGF2, 10 ng/ml for an additional 72 hours, after which the cells were rinsed in PBS and the culture medium was replaced with chemically defined medium supplemented with rhEGF, 20 ng/ml. After seven days the cells were rinsed in PBS, fixed in 4% paraformaldehyde in PBS, and processed for immunocytochemistry with TuJ1, a mAb that recognizes neuron-specific βIII-Tubulin.

[3] = tested on: murine fibroblasts, 3T3 cells; assay: Oct4 immunostaining of murine fibroblasts (3T3 cells) cultured with GM1485; assay type: cell-based; details: GM1485 versus vehicle, no neural induction
Description: In another experiment, the murine fibroblasts, 3T3 cells were cultured in accordance with the protocol described, supra., for Example 1, except that they were not entered into a neural induction environment. Rather, the murine fibroblasts were fixed and stained with rabbit αOct4 antibody. The photomicrographs in FIG. 3 were taken using bright field microscopy using a 20× objective, except the inset, which is a 20× phase contrast photomicrograph of the same microscopic field into which it is set. The arrows point to the corresponding nuclei in the bright field and phase micrographs of the vehicle treated murine fibroblasts. Only the GM1485 treated murine fibroblasts express Oct4.

adult rats = assay: Cardiac ischemic injury (left anterior descending artery ligation) in adult rats; assay type: in vivo, rat; details: 5 mg/kg daily intraperitoneal, 30 days after infarction
Description: Adult rats underwent thoracotomy, the heart was isolated, the left anterior descending artery was identified and ligated at its branch point from the left circumflex artery, causing a massive infarction of the left ventricle. The chest was closed, lungs reinflated and the skin closed. The animals began a 30 day regimen of daily intraperitoneal injections of either GM1485 at 5 mg/kg or the saline vehicle in which it was dissolved. On the 30th day after infarction the animals were sacrificed, the hearts harvested, fixed and cryosectioned. […] The histology of the vehicle treated tissue is consistent with an extensive myocardial infarction. […] FIG. 5 is a 2×2 matrix of photomicrographs of cardiac tissue 30 days after infarction and treatment with either vehicle in the top two slides or GM1485 in the bottom two slides. The left upper and lower sections were stained with an αOct4 antiserum and the right upper and lower sections were stained with αSox2 (mAb R&D Systems). Only the GM1485 treated cardiac tissue expresses Oct4 and/or Sox2.

human fibroblasts = assay: Reprogramming of GM1485-treated human fibroblasts under neural inducing conditions (GFAP, TuJ1 staining); assay type: cell-based; details: GM1485 100 μM, then FGF2 72 hours and rhEGF 7 days
Description: On day one of this experiment, the human fibroblasts, were plated, grown overnight as described above and then changed to DMEM supplemented with 10% heat inactivated FCS, 1% DMEM non-essential amino acids (Gibco), penicillin/streptomycin/glutamine (Gemini Bioproducts) and amphotericin B with or without GM1485 for 1 day, and reduced the concentration of serum over an 16 h period until the serum was absent, however the concentration of GM1485 was maintained at 100 μM throughout. The cells were maintained in SFM+/−GM1485 and 10 ng/mL FGF2 for 72 hours. On day 4 of the experiment, the culture environment was changed to 0.5 mL of a SFM without FGF2, but with rhEGF at 20 ng/ml. The cells were maintained in SFM supplemented with 20 ng/ml rhEGF for an additional 7 days. On the 11th day all the cells were fixed by aspirating the medium from the wells and replacing it with 0.5 mL/well of 4% paraformaldehyde in phosphate buffered saline (“PBS”) for 15 minutes at room temperature. Thereafter, the cells were briefly rinsed with PBS at room temperature, then washed with PBS at room temperature in three cycles of 5 minutes each. […] FIG. 2 is comprised of a set of 4 fluorescence photomicrographs, shown in inverted mode to allow full visualization in grayscale. […]

IGF2 expression = assay: cDNA array analysis of gene expression after initiating reprogramming with GM1485; assay type: cell-based, human; details: 48 hours after initiating reprogramming, GM1485 versus vehicle treated cells
Description: It has previously been shown that RIL treatment alters gene expression and that the biologic effects of these compounds are dependent upon cell-cell signaling. Included among these changes are alterations in the secretion of soluble factors (Lowry W E et al. 2008, Proc Natl Acad Sci USA 105, 2883-2888). To begin to explore what changes in gene expression might play a role GM1485-mediated iPS induction, RNA for cDNA array analysis was harvested from GM1485 and vehicle treated cells 48 hours after initiating reprogramming with GM1485.

CCC(C)(C)C(=O)C(=O)N1CCC[C@H]1C(=O)O [GM1485, (2S)-1-(3,3-dimethyl-1,2-dioxopentyl)-2-pyrrolidinecarboxylic acid]
Oct4 expression (anti-OCT 3/4 immunostaining) [1]: upregulation of Oct4 | iPS induction (human keratinocytes; GM1485 alone, in vitro): has not previously resulted in iPS induction | Oct4 and Sox2 expression (human keratinocytes; GM1485 with rhIGF2 included in cultures): upregulate Oct4 and Sox2 with the same kinetics as treated fibroblasts | differentiation to neuronal cells (TuJ1, βIII-Tubulin) ([2]; 100 μM GM1485 72 hours without IGF2 blockade, then rhFGF2 72 hours, rhEGF seven days): differentiated to neuronal cells | reprogramming to iPS cells (rabbit αOct4 staining) ([2]; 100 μM GM1485, 72 hours, without IGF2 blockade): reprogrammed | Oct4 expression (rabbit αOct4 staining) [3]: express Oct4 | histology of heart tissue (H&E stained section) (adult rats; versus saline vehicle): consistent with normal myocardium | Oct4 and Sox2 expression in cardiac tissue (adult rats; versus vehicle): Oct4 and Sox2 are upregulated | reprogramming of fibroblasts to neurons or astrocytes (GFAP, TuJ1) (human fibroblasts): acquire the ability to be reprogrammed to an alternative cell fate | IGF2 expression increase (IGF2 expression): 550% | number of genes upregulated by 2 fold or more (IGF2 expression): Over 100
